Laboratory results reported in patent US12433855B2, “Method of inhibiting gram-negative bacterial quorum signalling molecules using the macrocycle pillar[5]arene” (AALTO UNIVERSITY FOUNDATION SR, priority 2018, dated 2025).
“Also recorded” adds a separate entry of the source.

Key:
[1] = Binding of HSLs having carbon chains of different lengths
[2] = system: A549 cells infected with P. aeruginosa; assay: Gene expression (total RNA) of A549 cells infected with P. aeruginosa; format: cell-based, human
Description: In order to further study the influence of P[5]a on the eukaryotic cells, total RNA was isolated from A549 cells infected with P. aeruginosa in the presence or absence of 100 nM or 2.5 mM P[5]a. The expression of 46 genes were affected strongly enough to meet our stringent criteria and be considered as differentially expressed during the infection with PAO1.

[3] = system: A549 cells; assay: CellTox Green Cytotoxicity Assay; format: cell-based, human
Description: (§1) To assess the possible toxicity of P[5]a on the lung cells, two independent viability tests were performed. First, the viability of A549 cells grown in the presence of different concentrations of P[5]a was determined using trypan blue staining. […] Subsequently, the CellTox Green Cytotoxicity Assay (Promega) was carried out for A549 cells grown with and without P[5]a, in the presence or absence of PAO1 P. aeruginosa strain. […] This was not observed for cells grown with the addition of P[5]a in the growth medium.

[4] = Stability and dissolution in water; format: physicochemical
[5] = system: Pseudomonas aeruginosa; assay: Pyocyanin assay; format: cell-based; conditions: for production of pyocyanin: 24 hours of growth, OD695
Text: In testing the functionality of P[5]a as an actual quorum sensing inhibitor a pathogenic Gram-negative bacterium, Pserudomonas aeruginosa, which contains the LasI synthase that produces the 3-oxo-C12 HSL, was used.
P. aeruginosa utilizes multiple quorum sensing systems (Las, Rhl and Pqs). The Las system is at the top of a cascade that leads to the activation of the other quorum sensing systems, and is directly responsible for the production of the green toxin pyocyanin. Pyocyanin is a toxin produced by Pseudomonas aeruginosa, and the production is directly activated by the 3-oxo-C12 HSL. Pyocyanin is responsible for the death of cells in the lung during cystic fibrosis. Thus, the production of this toxin is related directly to the C12 Las AHL signal in a quorum-based response.
Bacterial cells were cultured for 24 hours in Luria Broth (LB) medium with […] added. Then, the culture fluid was separated from the cells and measured at OD695 (this measures the amount of green color).
In a pyocyanin assay, the effect of varying concentrations of a P[5]a (4,9,14,19,24,26,28,30,32,34-Deca[2-(trimethylaminio)ethoxy]hexacyclo[21.2.2.2^3,6.2^8,11.2^13,16.2^18,21]pentatriaconta-1(25),3,5,8,10,13,15,18,20,23,26,28,30,32,34-pentadecaene⋅10bromide, CAS No. 1351445-28-7) on the production of pyocyanin after 24 hours of growth was studied and the results are shown in FIG. 12.

[6] = system: A549 cells; assay: Viability of A549 cells, trypan blue staining; format: cell-based, human; conditions: different concentrations of P[5]a, with vs without
Description: as §1

For `OC[C@H]1O[C@@H]2O[C@H]3[C@H](O)[C@@H](O)[C@@H](O[C@H]4[C@H](O)[C@@H](O)[C@@H](O[C@H]5[C@H](O)[C@@H](O)[C@@H](O[C@H]6[C@H](O)[C@@H](O)[C@@H](O[C@H]7[C@H](O)[C@@H](O)[C@@H](O[C@H]8[C@H](O)[C@@H](O)[C@@H](O[C@H]9[C@H](O)[C@@H](O)[C@@H](O[C@H]1[C@H](O)[C@H]2O)O[C@@H]9CO)O[C@@H]8CO)O[C@@H]7CO)O[C@@H]6CO)O[C@@H]5CO)O[C@@H]4CO)O[C@@H]3CO` [gamma-cyclodextrin, Gamma-cyclodextrin], the “binding to N-acyl-homoserine lactones (AHLs)” value (from here on “binding … (AHLs)”) [1] was “found to bind”.
With `C1COCCOCCOCCOCCO1` [15-crown-5, 1,4,7,10,13-Pentaoxacyclopentadecane] the “binding … (AHLs)” value [1] was “found to bind”.
With `OC[C@H]1O[C@@H]2O[C@H]3[C@H](O)[C@@H](O)[C@@H](O[C@H]4[C@H](O)[C@@H](O)[C@@H](O[C@H]5[C@H](O)[C@@H](O)[C@@H](O[C@H]6[C@H](O)[C@@H](O)[C@@H](O[C@H]7[C@H](O)[C@@H](O)[C@@H](O[C@H]1[C@H](O)[C@H]2O)O[C@@H]7CO)O[C@@H]6CO)O[C@@H]5CO)O[C@@H]4CO)O[C@@H]3CO` [alpha-cyclodextrin, Alpha-cyclodextrin] the “binding … (AHLs)” value [1] was “found to bind”.
For `C[N+](C)(C)CCOc1cc2c(OCC[N+](C)(C)C)cc1Cc1cc(OCC[N+](C)(C)C)c(cc1OCC[N+](C)(C)C)Cc1cc(OCC[N+](C)(C)C)c(cc1OCC[N+](C)(C)C)Cc1cc(OCC[N+](C)(C)C)c(cc1OCC[N+](C)(C)C)Cc1cc(OCC[N+](C)(C)C)c(cc1OCC[N+](C)(C)C)C2.[Br-].[Br-].[Br-].[Br-].[Br-].[Br-].[Br-].[Br-].[Br-].[Br-]` [P[5]a, 4,9,14,19,24,26,28,30,32,34-Deca[2-(trimethylaminio)ethoxy]hexacyclo[21.2.2.2^3,6.2^8,11.2^13,16.2^18,21]pentatriaconta-1(25),3,5,8,10,13,15,18,20,23,26,28,30,32,34-pentadecaene⋅10bromide], the “binding … (AHLs)” value [1] was “found to bind”, the “selectivity of AHL binding by chain length” value [1] was “selectively bind long-chained N-acyl-homoserine lactones” and the “overexpression of differentially expressed genes during infection” value ([2]; 100 nM or 2.5 mM P[5]a, PAO1 infection) was “reduced the overexpression of many of the differentially expressed genes”. The “expression of CXCL1, CXCL8, CCL20 and ICAM1” value ([2]; 100 nM or 2.5 mM P[5]a, PAO1 infection, dose-dependent) was “significantly reduced”, the “expression of adrenomodullin (ADM) and colony stimulating factor 2 (CSF2)” value ([2]; P[5]a added to infected A549 culture) was “further overexpression” and the “increase in fluorescence (indicator of cell death)” value ([3]; A549 cells grown with P[5]a, absence of PAO1) was “not observed”. The “cell death during infection with PAO1 strain” value ([3]; A549 cells infected with PAO1 P. aeruginosa, P[5]a in growth medium) was “reduction in cell death in a dose dependent manner”, the dissolution in water [4] was “easily dissolved” and the stability [4] was “very good stability”. The cellular growth ([5]; P. aeruginosa culture) was “not affected at all”, the production of pyocyanin ([5]; higher concentrations of P[5]a) was “complete inhibition; also recorded: completely inhibit toxin production” and the production of pyocyanin ([5]; no or low concentrations of P[5]a) was “no significant differences”. The “viability of A549 cells (trypan blue)” value [6] was “no significant difference”.
For `O=C1N2CN3C(=O)N4CN5C(=O)N6CN7C(=O)N8CN9C(=O)N%10CN%11C(=O)N%12CN1C1C2N2CN%13C(=O)N(CN%14C(=O)N(CN%15C(=O)N(CN%16C(=O)N(CN%17C(=O)N(CN1C2=O)C%12C%11%17)C%10C9%16)C8C7%15)C6C5%14)C4C3%13` (stereo not shown) [cucurbit[6]uril, Cucurbit[6]uril hydrate], the “binding … (AHLs)” value [1] was “found to bind”.
For `O=S(=O)(O)c1cc2c(O)c(c1)Cc1cc(S(=O)(=O)O)cc(c1O)Cc1cc(S(=O)(=O)O)cc(c1O)Cc1cc(S(=O)(=O)O)cc(c1O)C2` [4-sulfocalix[4]arene, 25,26,27,28-Tetrahydroxycalix[4]arene-5,11,17,23-tetrasulfonic acid], the “binding … (AHLs)” value [1] was “found to bind”.
For Resorcin[4]arene, the “binding … (AHLs)” value [1] was “found to bind”.
